Assay: Hygroscopicity test (60° C./100% RH, 24 hours, Karl Fischer water content)
Format: physicochemical
Settings: for hygroscopicity (water content after exposure): left for 24 hours in a dessicator set at humidity 100%; for hygroscopicity (water content after exposure) / Moisture Content After 24 hrs (%): temperature 60° C.; for Moisture Content After 24 hrs (%): 24 hours in dessicator at humidity 100%; for Initial Moisture Content (%): before exposure to 60° C./100% humidity
Experimental: (7) Hygroscopicity Test Method
One g of the sample was accurately weighed, in a weighing bottle (diameter 5 cm), covered with kimwipes and left to rest in a 60° C./100% RH environment (water/dessicator). 24 hours later, the weighing bottle was removed, transferred to an environment of a room temperature and about 30% RH (magnesium chloride hexahydrate saturated water solution/dessicator) and left, to rest for 24 hours and the water content of the sample was measured by the Karl Fischer method.

| SMILES | hygroscopicity (water content after exposure) | Moisture Content After 24 hrs (%) | Initial Moisture Content (%) |
| --- | --- | --- | --- |
| O=C1CCc2ccc(OCCCCN3CCN(c4cccc(Cl)c4Cl)CC3)cc2N1 [Anhydrous Aripiprazole Crystals B, aripiprazole] | ≤ 0.4% | – | – |
| O=C1CCc2ccc(OCCCCN3CCN(c4cccc(Cl)c4Cl)CC3)cc2N1 [Example 2, aripiprazole] | ≤ 0.4% | 0.04% | 0.04% |
| O=C1CCc2ccc(OCCCCN3CCN(c4cccc(Cl)c4Cl)CC3)cc2N1 [Example 3, aripiprazole] | ≤ 0.4% | 0.02% | 0.02% |
| O=C1CCc2ccc(OCCCCN3CCN(c4cccc(Cl)c4Cl)CC3)cc2N1 [Example 4, aripiprazole] | ≤ 0.4% | 0.02% | 0.02% |
| O=C1CCc2ccc(OCCCCN3CCN(c4cccc(Cl)c4Cl)CC3)cc2N1 [Example 5, aripiprazole] | ≤ 0.4% | 0.04% | 0.04% |
| O=C1CCc2ccc(OCCCCN3CCN(c4cccc(Cl)c4Cl)CC3)cc2N1 [Example 6, aripiprazole] | ≤ 0.4% | 0.04% | 0.04% |
| O=C1CCc2ccc(OCCCCN3CCN(c4cccc(Cl)c4Cl)CC3)cc2N1 [Example 7, aripiprazole] | ≤ 0.4% | 0.03% | 0.04% |
| O=C1CCc2ccc(OCCCCN3CCN(c4cccc(Cl)c4Cl)CC3)cc2N1 [Example 8, aripiprazole] | ≤ 0.4% | 0.03% | 0.04% |
| O=C1CCc2ccc(OCCCCN3CCN(c4cccc(Cl)c4Cl)CC3)cc2N1 [Example 9, aripiprazole] | ≤ 0.4% | 0.01% | 0.03% |
| O=C1CCc2ccc(OCCCCN3CCN(c4cccc(Cl)c4Cl)CC3)cc2N1 [Example 10, aripiprazole] | no more than 0.4% | 0.05% | 0.05% |
| O=C1CCc2ccc(OCCCCN3CCN(c4cccc(Cl)c4Cl)CC3)cc2N1 [Example 11, aripiprazole] | ≤ 0.4% | 0.03% | 0.03% |
| O=C1CCc2ccc(OCCCCN3CCN(c4cccc(Cl)c4Cl)CC3)cc2N1 [Example 12, aripiprazole] | ≤ 0.4% | 0.03% | 0.04% |
| O=C1CCc2ccc(OCCCCN3CCN(c4cccc(Cl)c4Cl)CC3)cc2N1 [Example 13, aripiprazole] | ≤ 0.4% | 0.03% | 0.04% |
| O=C1CCc2ccc(OCCCCN3CCN(c4cccc(Cl)c4Cl)CC3)cc2N1 [Example 14, aripiprazole] | ≤ 0.4% | 0.09% | 0.06% |
| O=C1CCc2ccc(OCCCCN3CCN(c4cccc(Cl)c4Cl)CC3)cc2N1 [Example 15, aripiprazole] | ≤ 0.4% | 0.04% | 0.04% |
| O=C1CCc2ccc(OCCCCN3CCN(c4cccc(Cl)c4Cl)CC3)cc2N1 [Reference Example 1, aripiprazole] | 3.28% | 3.28% | 0.04% |
| O=C1CCc2ccc(OCCCCN3CCN(c4cccc(Cl)c4Cl)CC3)cc2N1 [Reference Example 2, aripiprazole] | 1.78% | 1.78% | 0.04% |

— patent US8901130B2, “Low hygroscopic aripiprazole drug substance and processes for the preparation” (Ostuka Pharmaceutical Co., Ltd., priority 2001, dated 2014)
